The compounds below were run against T1, ER (Homo sapiens, UniProt P03372) (assay: ER degradation activity, in-cell western blot analysis in T47D cells). Conditions: 16 hours, Table A does not say which cell line (T47D or MCF7), read-out: Potency (DC50).
T1 construct: host or cells: T47D and MCF7 human breast cancer cells
T1 sequence (P03372 1-595): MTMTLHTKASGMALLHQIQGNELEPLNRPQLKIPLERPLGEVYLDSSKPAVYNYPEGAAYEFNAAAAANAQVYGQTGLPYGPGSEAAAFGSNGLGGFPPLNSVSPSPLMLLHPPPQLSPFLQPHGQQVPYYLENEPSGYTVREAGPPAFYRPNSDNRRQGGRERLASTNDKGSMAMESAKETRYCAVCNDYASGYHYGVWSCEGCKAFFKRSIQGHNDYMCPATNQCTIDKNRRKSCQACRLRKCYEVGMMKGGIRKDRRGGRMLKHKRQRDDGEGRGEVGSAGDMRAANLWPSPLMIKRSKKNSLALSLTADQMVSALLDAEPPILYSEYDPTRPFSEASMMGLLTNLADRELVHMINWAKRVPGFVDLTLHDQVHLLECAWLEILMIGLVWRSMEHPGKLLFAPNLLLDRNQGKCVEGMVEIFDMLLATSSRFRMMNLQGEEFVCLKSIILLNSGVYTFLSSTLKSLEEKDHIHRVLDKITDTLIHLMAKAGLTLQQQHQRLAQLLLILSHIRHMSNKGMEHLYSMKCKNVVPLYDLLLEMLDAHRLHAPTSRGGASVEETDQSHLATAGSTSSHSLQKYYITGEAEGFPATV
Type: cell-based
Outline: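 In-cell western, T47D; compounds 16 h, 0.5% DMSO final; anti-rabbit-680/anti-mouse-800 secondaries, 1 h RT, dark; read on CLX imager. ER % vs untreated/DMSO wells (100%).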
`O=C1CCC(N2Cc3cc4c(cc3C2=O)CN(C(=O)CN2CC3(C2)CN(c2ccc(C5=C(c6ccc(F)cc6)CCCc6cc(O)ccc65)cc2)C3)C4)C(=O)N1` (stereo not shown) [E 48] was tested, and the DC50 was 0.01 to 0.1 µM.
For `O=C1CCC(N2C(=O)c3cc4c(cc3C2=O)CN(C(=O)CN2CC3(C2)CN(c2ccc(C5=C(c6ccc(F)cc6)CCCc6cc(O)ccc65)cc2)C3)C4)C(=O)N1` (stereo not shown) [E 49, 2-(2,6-dioxopiperidin-3-yl)-6-(2-(6-(4-(8-(4-fluorophenyl)-3-hydroxy-6,7-dihydro-5H-benzo[7]annulen-9-yl)phenyl)-2,6-diazaspiro[3.3]heptan-2-yl)acetyl)-6,7-dihydropyrrolo[3,4-f]isoindole-1,3(2H,5H)-dione], the DC50 was 0.01 to 0.1 µM.
In the case of `C[C@@H]1Cc2c([nH]c3ccccc23)[C@@H](c2c(F)cc(N3CCC(CN4CC(N5Cc6cc7c(cc6C5)C(=O)N(C5CCC(=O)NC5=O)C7=O)C4)CC3)cc2F)N1CC(F)F` (stereo partly drawn) [E 50, 6-(1-((1-(4-((1R,3R)-2-(2,2-difluoroethyl)-3-methyl-2,3,4,9-tetrahydro-1H-pyrido[3,4-b]indol-1-yl)-3,5-difluorophenyl)piperidin-4-yl)methyl)azetidin-3-yl)-2-(2,6-dioxopiperidin-3-yl)-6,7-dihydropyrrolo[3,4-f]isoindole-1,3(2H,5H)-dione], the DC50 is reported as over 0.1 µM.
In the case of `C[C@@H]1Cc2c([nH]c3ccccc23)[C@@H](c2c(F)cc(N3CCC(CN4CCC(N5Cc6cc7c(cc6C5)C(=O)N(C5CCC(=O)NC5=O)C7=O)CC4)CC3)cc2F)N1CC(F)F` (stereo partly drawn) [E 51, 6-(1-((1-(4-((1R,3R)-2-(2,2-difluoroethyl)-3-methyl-2,3,4,9-tetrahydro-1H-pyrido[3,4-b]indol-1-yl)-3,5-difluorophenyl)piperidin-4-yl)methyl)piperidin-4-yl)-2-(2,6-dioxopiperidin-3-yl)-6,7-dihydropyrrolo[3,4-f]isoindole-1,3(2H,5H)-dione], the DC50 is reported as 0.01 to 0.1 µM.
For `C[C@@H]1Cc2c([nH]c3ccccc23)[C@@H](c2c(F)cc(N3CCC(CN4CC(N5Cc6cc7c(cc6C5)C(=O)N(C5CCC(=O)NC5=O)C7)C4)CC3)cc2F)N1CC(F)F` (stereo partly drawn) [E 52, 3-(6-(1-((1-(4-((1R,3R)-2-(2,2-difluoroethyl)-3-methyl-2,3,4,9-tetrahydro-1H-pyrido[3,4-b]indol-1-yl)-3,5-difluorophenyl)piperidin-4-yl)methyl)azetidin-3-yl)-1-oxo-3,5,6,7-tetrahydropyrrolo[3,4-f]isoindol-2(1H)-yl)piperidine-2,6-dione], the DC50 was under 0.01 µM.
In the case of `C[C@@H]1Cc2c([nH]c3ccccc23)[C@@H](c2c(F)cc(N3CCC(CN4CCC(N5Cc6cc7c(cc6C5)C(=O)N(C5CCC(=O)NC5=O)C7)CC4)CC3)cc2F)N1CC(F)F` (stereo partly drawn) [E 53, 3-(6-(1-((1-(4-((1R,3R)-2-(2,2-difluoroethyl)-3-methyl-2,3,4,9-tetrahydro-1H-pyrido[3,4-b]indol-1-yl)-3,5-difluorophenyl)piperidin-4-yl)methyl)piperidin-4-yl)-1-oxo-3,5,6,7-tetrahydropyrrolo[3,4-f]isoindol-2(1H)-yl)piperidine-2,6-dione], the DC50 is reported as 0.01 to 0.1 µM.
Work on `C[C@@H]1Cc2c([nH]c3ccccc23)[C@@H](c2c(F)cc(N3CCN(CCN4Cc5cc6c(cc5C4)C(=O)N(C4CCC(=O)NC4=O)C6)CC3)cc2F)N1CC(F)F` (stereo partly drawn) [E 54, 3-(6-(2-(4-(4-((1R,3R)-2-(2,2-difluoroethyl)-3-methyl-2,3,4,9-tetrahydro-1H-pyrido[3,4-b]indol-1-yl)-3,5-difluorophenyl)piperazin-1-yl)ethyl)-1-oxo-3,5,6,7-tetrahydropyrrolo[3,4-f]isoindol-2(1H)-yl)piperidine-2,6-dione] yielded a DC50 of 0.01 to 0.1 µM.
Compound `C[C@@H]1Cc2c([nH]c3ccccc23)[C@@H](c2c(F)cc(N3CCC(N4CC(CC(=O)N5Cc6cc7c(cc6C5)C(=O)N(C5CCC(=O)NC5=O)C7=O)C4)CC3)cc2F)N1CC(F)F` (stereo partly drawn) [E 55, 6-(2-(1-(1-(4-((1R,3R)-2-(2,2-difluoroethyl)-3-methyl-2,3,4,9-tetrahydro-1H-pyrido[3,4-b]indol-1-yl)-3,5-difluorophenyl)piperidin-4-yl)azetidin-3-yl)acetyl)-2-(2,6-dioxopiperidin-3-yl)-6,7-dihydropyrrolo[3,4-f]isoindole-1,3(2H,5H)-dione] has a DC50 of over 0.1 µM.
`C[C@@H]1Cc2c([nH]c3ccccc23)[C@@H](c2c(F)cc(N3CCC(N4CC(CC(=O)N5Cc6cc7c(cc6C5)C(=O)N(C5CCC(=O)NC5=O)C7)C4)CC3)cc2F)N1CC(F)F` (stereo partly drawn) [E 56, 3-(6-(2-(1-(1-(4-((1R,3R)-2-(2,2-difluoroethyl)-3-methyl-2,3,4,9-tetrahydro-1H-pyrido[3,4-b]indol-1-yl)-3,5-difluorophenyl)piperidin-4-yl)azetidin-3-yl)acetyl)-1-oxo-3,5,6,7-tetrahydropyrrolo[3,4-f]isoindol-2(1H)-yl)piperidine-2,6-dione] gave a DC50 of 0.01 to 0.1 µM.
Compound `C[C@@H]1Cc2c([nH]c3ccccc23)[C@@H](c2c(F)cc(N3CCC(CN4CCC(C(=O)N5Cc6cc7c(cc6C5)C(=O)N(C5CCC(=O)NC5=O)C7=O)CC4)C3)cc2F)N1CC(F)F` (stereo partly drawn) [E 57, 6-(1-((1-(4-((1R,3R)-2-(2,2-difluoroethyl)-3-methyl-2,3,4,9-tetrahydro-1H-pyrido[3,4-b]indol-1-yl)-3,5-difluorophenyl)pyrrolidin-3-yl)methyl)piperidine-4-carbonyl)-2-(2,6-dioxopiperidin-3-yl)-6,7-dihydropyrrolo[3,4-f]isoindole-1,3(2H,5H)-dione] has a DC50 of under 0.01 µM.
In the case of `C[C@@H]1Cc2c([nH]c3ccccc23)[C@@H](c2c(F)cc(N3CCCC(CN4CCC(C(=O)N5Cc6cc7c(cc6C5)C(=O)N(C5CCC(=O)NC5=O)C7=O)CC4)C3)cc2F)N1CC(F)F` (stereo partly drawn) [E 58, 6-(1-((1-(4-((1R,3R)-2-(2,2-difluoroethyl)-3-methyl-2,3,4,9-tetrahydro-1H-pyrido[3,4-b]indol-1-yl)-3,5-difluorophenyl)piperidin-3-yl)methyl)piperidine-4-carbonyl)-2-(2,6-dioxopiperidin-3-yl)-6,7-dihydropyrrolo[3,4-f]isoindole-1,3(2H,5H)-dione], the DC50 is reported as 0.01 to 0.1 µM.
Work on `C[C@@H]1Cc2c([nH]c3ccccc23)[C@@H](c2c(F)cc(N3CCCC(CN4CCC(N5Cc6cc7c(cc6C5)C(=O)N(C5CCC(=O)NC5=O)C7=O)CC4)C3)cc2F)N1CC(F)F` (stereo partly drawn) [E 59, 6-(1-((1-(4-((1R,3R)-2-(2,2-difluoroethyl)-3-methyl-2,3,4,9-tetrahydro-1H-pyrido[3,4-b]indol-1-yl)-3,5-difluorophenyl)piperidin-3-yl)methyl)piperidin-4-yl)-2-(2,6-dioxopiperidin-3-yl)-6,7-dihydropyrrolo[3,4-f]isoindole-1,3(2H,5H)-dione] yielded a DC50 of 0.01 to 0.1 µM.
With `C[C@@H]1Cc2c([nH]c3ccccc23)[C@@H](c2c(F)cc(N3CC4(CCN4CC(=O)N4Cc5cc6c(cc5C4)C(=O)N(C4CCC(=O)NC4=O)C6=O)C3)cc2F)N1CC(F)F` (stereo partly drawn) [E 60, 6-(2-(6-(4-((1R,3R)-2-(2,2-difluoroethyl)-3-methyl-2,3,4,9-tetrahydro-1H-pyrido[3,4-b]indol-1-yl)-3,5-difluorophenyl)-1,6-diazaspiro[3.3]heptan-1-yl)acetyl)-2-(2,6-dioxopiperidin-3-yl)-6,7-dihydropyrrolo[3,4-f]isoindole-1,3(2H,5H)-dione] the DC50 was over 0.1 µM.
Work on `C[C@@H]1Cc2c([nH]c3ccccc23)[C@@H](c2c(F)cc(N3CC4(CCN4CC(=O)N4Cc5cc6c(cc5C4)C(=O)N(C4CCC(=O)NC4=O)C6)C3)cc2F)N1CC(F)F` (stereo partly drawn) [E 61, 3-(6-(2-(6-(4-((1R,3R)-2-(2,2-difluoroethyl)-3-methyl-2,3,4,9-tetrahydro-1H-pyrido[3,4-b]indol-1-yl)-3,5-difluorophenyl)-1,6-diazaspiro[3.3]heptan-1-yl)acetyl)-1-oxo-3,5,6,7-tetrahydropyrrolo[3,4-f]isoindol-2(1H)-yl)piperidine-2,6-dione] yielded a DC50 of over 0.1 µM.
Compound `C[C@@H]1Cc2c([nH]c3ccccc23)[C@@H](c2c(F)cc(N3CCC4(CCN(CC(=O)N5Cc6cc7c(cc6C5)C(=O)N(C5CCC(=O)NC5=O)C7=O)C4)CC3)cc2F)N1CC(F)F` (stereo partly drawn) [E 62, 6-(2-(8-(4-((1R,3R)-2-(2,2-difluoroethyl)-3-methyl-2,3,4,9-tetrahydro-1H-pyrido[3,4-b]indol-1-yl)-3,5-difluorophenyl)-2,8-diazaspiro[4.5]decan-2-yl)acetyl)-2-(2,6-dioxopiperidin-3-yl)-6,7-dihydropyrrolo[3,4-f]isoindole-1,3(2H,5H)-dione] has a DC50 of under 0.01 µM.
In the case of `C[C@@H]1Cc2c([nH]c3ccccc23)[C@@H](c2c(F)cc(N3CCC4(CCN(CC(=O)N5Cc6cc7c(cc6C5)C(=O)N(C5CCC(=O)NC5=O)C7)C4)CC3)cc2F)N1CC(F)F` (stereo partly drawn) [E 63, 3-(6-(2-(8-(4-((1R,3R)-2-(2,2-difluoroethyl)-3-methyl-2,3,4,9-tetrahydro-1H-pyrido[3,4-b]indol-1-yl)-3,5-difluorophenyl)-2,8-diazaspiro[4.5]decan-2-yl)acetyl)-1-oxo-3,5,6,7-tetrahydropyrrolo[3,4-f]isoindol-2(1H)-yl)piperidine-2,6-dione], the DC50 is reported as under 0.01 µM.
